Patent US9611221B2, “Histone demethylase inhibitors” (CELGENE QUANTICEL RESEARCH, INC., priority 2012, dated 2017)
pIC50: −log10 of the molar value.

Tests used:
Type in all cases: biochemical
JMJD2C = JMJD2C (Homo sapiens (Human), UniProt Q9H3R0); assay: JMJD2C in vitro enzyme inhibition assay (TR-FRET); conditions: 0.3 nM JMJD2C, 300 nM H3K9me3-biotin peptide, 2 μM alpha-ketoglutaric acid
Description: (§1) This assay determines the ability of a test compound to inhibit Jarid1A, Jarid1B, and JMJD2C demethylase activity. Baculovirus expressed Jarid1A (GenBank Accession #NM_001042603, AA1-1090) was purchased from BPS Bioscience (Cat#50110). Baculovirus expressed Jarid1B (GenBank Accession #NM_006618, AA 2-751) was purchased from BPS Bioscience (Cat #50121) or custom made by MolecularThroughput. Baculovirus expressed JMJD2C (GenBank Accession #BC143571, AA 2-372) was purchased from BPS Bioscience (Cat#50105).
The ability of test compounds to inhibit the activity of JMJD2C was determined in 384-well plate format under the following reaction conditions: 0.3 nM JMJD2C, 300 nM H3K9me3-biotin labeled peptide (Anaspec cat #64360), 2 μM alpha-ketoglutaric acid in assay buffer of 50 mM HEPES, pH7.3, 0.005% Brij35, 0.5 mM TCEP, 0.2 mg/ml BSA, 50 μM sodium L-ascorbate, and 2 μM ammonium iron(II) sulfate. Reaction product was determined quantitatively by TR-FRET after the addition of detection reagent Phycolink Streptavidin-allophycocyanin (Prozyme) and Europium-anti-di-methylated histone H3 lysine 9 (H3K9me2) antibody (PerkinElmer) in the presence of 5 mM EDTA in LANCE detection buffer (PerkinElmer) at a final concentration of 50 nM and 1 nM, respectively.
(§2) The reaction mixture was incubated at room temperature for 30 minutes, and terminated by the addition of 6 μl of 5 mM EDTA in LANCE detection buffer containing 100 nM Phycolink Streptavidin-allophycocyanin and 2 nM Europium-anti-H3K9me2 antibody. Plates were read by EnVisionMultilabel Reader in TR-FRET mode (excitation at 320 nm, emission at 615 nm and 665 nm) after 1 hour incubation at room temperature. A ratio was calculated (665/615) for each well and fitted to determine inhibition constant (IC50).

Jarid1B = Jarid1B (Homo sapiens (Human), UniProt Q9UGL1); assay: Jarid1B in vitro enzyme inhibition assay (TR-FRET); conditions: 0.8 nM Jarid1B, 300 nM H3K4me3-biotin peptide, 2 μM alpha-ketoglutaric acid
Description: as §1
(§3) The ability of test compounds to inhibit the activity of Jarid1B was determined in 384-well plate format under the following reaction conditions: 0.8 nM Jarid1B, 300 nM H3K4me3-biotin labeled peptide (Anaspec cat #64357), 2 μM alpha-ketoglutaric acid in assay buffer of 50 mM HEPES, pH7.3, 0.005% Brij35, 0.5 mM TCEP, 0.2 mg/ml BSA, 50 μM sodium L-ascorbate, and 2 μM ammonium iron(II) sulfate. Reaction product was determined quantitatively by TR-FRET after the addition of detection reagent Phycolink Streptavidin-allophycocyanin (Prozyme) and Europium-anti-mono- or di-methylated histone H3 lysine 4 (H3K4me1-2) antibody (PerkinElmer) in the presence of 5 mM EDTA in LANCE detection buffer (PerkinElmer) at a final concentration of 25 nM and 1 nM, respectively.
as §2, with “50” for “100”, “Europium-anti-H3K4me1-2” for “Europium-anti-H3K9me2”

Jarid1A = Jarid1A (Homo sapiens (Human), UniProt P29375); assay: Jarid1A in vitro enzyme inhibition assay (TR-FRET); conditions: 1 nM Jarid1A, 300 nM H3K4me3-biotin peptide, 2 μM alpha-ketoglutaric acid
Description: as §1
as §3, with “The enzymatic assay of Jarid1A activity is based upon Time Resolved-Fluorescence Resonance Energy Transfer (TR-FRET) detection. The” for “The”, “Jarid1A” for “Jarid1B”, “1” for “0.8”, “Jarid1A,” for “Jarid1B,”
as §2, with “50” for “100”, “Europium-anti-H3K4me1-2” for “Europium-anti-H3K9me2”

Chain of JMJD2C (Q9H3R0 2-372): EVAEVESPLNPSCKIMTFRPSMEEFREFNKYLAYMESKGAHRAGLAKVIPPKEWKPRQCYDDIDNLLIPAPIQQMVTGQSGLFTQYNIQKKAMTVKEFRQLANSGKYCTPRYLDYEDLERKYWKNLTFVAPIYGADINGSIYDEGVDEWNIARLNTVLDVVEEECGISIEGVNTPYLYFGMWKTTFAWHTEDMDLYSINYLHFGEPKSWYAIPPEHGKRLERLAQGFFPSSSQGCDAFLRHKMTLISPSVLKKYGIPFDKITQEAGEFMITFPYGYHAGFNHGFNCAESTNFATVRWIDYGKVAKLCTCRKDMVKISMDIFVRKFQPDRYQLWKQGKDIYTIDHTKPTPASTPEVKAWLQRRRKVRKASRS
Chain of Jarid1A (P29375 1-1090): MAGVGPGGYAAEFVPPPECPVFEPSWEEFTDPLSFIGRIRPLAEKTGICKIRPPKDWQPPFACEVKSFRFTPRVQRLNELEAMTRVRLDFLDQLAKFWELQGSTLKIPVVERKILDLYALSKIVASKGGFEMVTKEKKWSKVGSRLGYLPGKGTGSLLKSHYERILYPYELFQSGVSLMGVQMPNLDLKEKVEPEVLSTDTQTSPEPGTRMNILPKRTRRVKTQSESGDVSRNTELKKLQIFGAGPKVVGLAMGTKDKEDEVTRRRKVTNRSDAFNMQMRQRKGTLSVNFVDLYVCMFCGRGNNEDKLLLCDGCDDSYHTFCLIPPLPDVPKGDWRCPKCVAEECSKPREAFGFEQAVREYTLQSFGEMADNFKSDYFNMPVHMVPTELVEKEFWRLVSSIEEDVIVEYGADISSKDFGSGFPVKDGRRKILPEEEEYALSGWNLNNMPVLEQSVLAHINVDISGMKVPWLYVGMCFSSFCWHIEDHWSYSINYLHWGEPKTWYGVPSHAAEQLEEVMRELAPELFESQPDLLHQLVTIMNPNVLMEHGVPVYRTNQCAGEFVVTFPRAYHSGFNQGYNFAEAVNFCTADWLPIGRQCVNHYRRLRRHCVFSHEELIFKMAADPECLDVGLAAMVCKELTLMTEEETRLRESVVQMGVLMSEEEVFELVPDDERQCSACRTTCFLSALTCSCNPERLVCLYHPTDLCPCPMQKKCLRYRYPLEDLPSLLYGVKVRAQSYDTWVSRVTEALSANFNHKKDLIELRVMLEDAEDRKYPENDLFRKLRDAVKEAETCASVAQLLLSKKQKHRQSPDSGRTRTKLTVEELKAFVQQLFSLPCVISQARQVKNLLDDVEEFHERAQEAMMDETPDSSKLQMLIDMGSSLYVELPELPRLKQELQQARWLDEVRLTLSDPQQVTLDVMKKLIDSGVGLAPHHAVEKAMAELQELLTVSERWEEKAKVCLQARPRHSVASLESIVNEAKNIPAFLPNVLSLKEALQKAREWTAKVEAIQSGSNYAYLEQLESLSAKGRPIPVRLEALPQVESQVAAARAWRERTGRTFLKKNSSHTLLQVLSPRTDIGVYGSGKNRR
Chain of Jarid1B (Q9UGL1 2-751): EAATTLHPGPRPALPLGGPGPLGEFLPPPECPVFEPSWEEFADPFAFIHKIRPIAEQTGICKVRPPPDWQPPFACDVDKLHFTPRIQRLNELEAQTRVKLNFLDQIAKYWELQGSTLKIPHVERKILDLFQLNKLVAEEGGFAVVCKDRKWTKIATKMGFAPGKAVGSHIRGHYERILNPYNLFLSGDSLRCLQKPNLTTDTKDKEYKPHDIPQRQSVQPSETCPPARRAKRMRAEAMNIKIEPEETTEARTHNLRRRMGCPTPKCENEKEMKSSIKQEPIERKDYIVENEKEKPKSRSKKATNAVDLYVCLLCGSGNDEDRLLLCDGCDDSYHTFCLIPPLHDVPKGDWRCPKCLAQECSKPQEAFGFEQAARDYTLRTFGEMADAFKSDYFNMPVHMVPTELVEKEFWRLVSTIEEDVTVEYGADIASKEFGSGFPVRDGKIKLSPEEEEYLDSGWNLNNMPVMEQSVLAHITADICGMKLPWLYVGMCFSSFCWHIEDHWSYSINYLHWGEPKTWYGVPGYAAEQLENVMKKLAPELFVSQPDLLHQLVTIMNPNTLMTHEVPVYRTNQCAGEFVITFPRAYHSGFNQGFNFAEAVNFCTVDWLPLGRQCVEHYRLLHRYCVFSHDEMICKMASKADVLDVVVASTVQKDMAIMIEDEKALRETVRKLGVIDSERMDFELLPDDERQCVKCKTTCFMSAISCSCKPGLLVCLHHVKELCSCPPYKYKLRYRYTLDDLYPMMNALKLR

Row | SMILES | pIC50 (JMJD2C) | pIC50 (Jarid1B) | pIC50 (Jarid1A)
1 | O=C(O)c1ccncc1NCc1ccc(C(F)(F)F)cc1C1CC1 [Example 27, 3-{[2-cyclopropyl-4-(trifluoromethl)benzyl]amino}pyridine-4-carboxylic acid] | 6.00 to 7.00 | ≥ 7.00 | ≥ 7.00
2 | O=C(O)c1ccncc1NCc1cccc(C(F)(F)F)c1 [Example 32, 3-{[3-(trifluoromethyl)benzyl]amino}pyridine-4-carboxylic acid] | ≥ 7.00 | ≥ 7.00 | ≥ 7.00
3 | O=C(O)c1ccncc1NCc1ccccc1Oc1ccccc1 [Example 33, 3-[(2-phenoxybenzyl)amino]pyridine-4-carboxylic acid] | 6.00 to 7.00 | ≥ 7.00 | ≥ 7.00
4 | O=C(O)c1ccnnc1NCc1ccccc1 [Example 1, 3-(benzylamino)pyridazine-4-carboxylic acid] | ≥ 7.00 | 6.00 to 7.00 | ≥ 7.00
5 | O=C(O)c1ccncc1NCC1CCCc2ccc(F)cc21 (stereo not shown) [Example 50, 3-{[(7-fluoro-1,2,3,4-tetrahydronaphthalen-1-yl)methyl]amino}pyridine-4-carboxylic acid] | 6.00 to 7.00 | ≥ 7.00 | 
6 | O=C(O)c1ccncc1NCc1ccc(Cl)cc1C1CC1 [Example 26, 3-[(4-chloro-2-cyclopropylbenzyl)amino]pyridine-4-carboxylic acid] | 6.00 to 7.00 | ≥ 7.00 | ≥ 7.00
7 | O=C(O)c1ccncc1NCc1coc2ccccc12 [Example 38, 3-[(1-benzofuran-3-ylmethyl)amino]pyridine-4-carboxylic acid] | 6.00 to 7.00 | ≥ 7.00 | ≥ 7.00
8 | O=C(O)c1ccncc1NCc1ccc(Cl)cc1 [Example 10, 3-[(4-chlorobenzyl)amino]pyridine-4-carboxylic acid] | ≥ 7.00 | ≥ 7.00 | 
9 | COc1ccc2c(c1)CCCC2CNc1cnccc1C(=O)O (stereo not shown) [Example 60, 3-{[(6-methoxy-1,2,3,4-tetrahydronaphthalen-1-yl)methyl]amino}pyridine-4-carboxylic acid] | 6.00 to 7.00 | ≥ 7.00 | ≥ 7.00
10 | O=C(O)c1ccncc1NCc1cnccc1C1CC1 [Example 31, 3-{[(4-cyclopropylpyridin-3-yl)-methyl]amino}pyridine-4-carboxylic acid] | ≥ 7.00 | ≥ 7.00 | ≥ 7.00
11 | O=C(O)c1ccncc1NCC1COc2ccccc2O1 (stereo not shown) [Example 44, 3-[(2,3-dihydro-1,4-benzodioxin-2-ylmethyl)amino]pyridine-4-carboxylic acid] | ≥ 7.00 | ≥ 7.00 | ≥ 7.00
12 | COc1ccc(CNc2cnccc2C(=O)O)cc1 [Example 7, 3-[(4-methoxybenzyl)amino]pyridine-4-carboxylic acid] | ≥ 7.00 | ≥ 7.00 | 

Next, values leading:

Row | pIC50 (JMJD2C) | pIC50 (Jarid1B) | pIC50 (Jarid1A) | SMILES
13 | 6.00 to 7.00 | 6.00 to 7.00 | 6.00 to 7.00 | O=C(O)c1ccncc1NCc1cccc(OC(F)(F)F)c1 [Example 35, 3-{[3-(trifluoromethoxy)benzyl]amino}pyridine-4-carboxylic acid]
14 | ≥ 7.00 | ≥ 7.00 | ≥ 7.00 | O=C(O)c1ccncc1NCc1ccc(F)cc1 [Example 4, 3-[(4-fluorobenzyl)amino]pyridine-4-carboxylic acid]
15 | ≥ 7.00 | ≥ 7.00 | ≥ 7.00 | O=C(O)c1ccncc1NCC1CCOc2ccccc21 (stereo not shown) [Example 58, 3-[(3,4-dihydro-2H-chromen-4-ylmethyl)amino]pyridine-4-carboxylic acid]
16 | ≥ 7.00 | ≥ 7.00 | ≥ 7.00 | N#Cc1ccc(CNc2cnccc2C(=O)O)cc1 [Example 5, 3-[(4-cyanobenzyl)amino]pyridine-4-carboxylic acid]
17 | ≥ 7.00 | ≥ 7.00 | ≥ 7.00 | O=C(O)c1ccncc1NCc1ccc(Cl)cc1O [Example 21, 3-[(4-chloro-2-hydroxybenzyl)amino]pyridine-4-carboxylic acid]
18 | 6.00 to 7.00 | ≥ 7.00 | 6.00 to 7.00 | O=C(O)c1ccncc1NCc1cccc(OCC2CC2)c1 [Example 37, 3-{[3-(cyclopropylmethoxy)benzyl]amino}pyridine-4-carboxylic acid]
19 | 6.00 to 7.00 | ≥ 7.00 | ≥ 7.00 | O=C(O)c1ccncc1NCC1CCCc2ccc(C3CC3)cc21 (stereo not shown) [Example 53, 3-{[(7-cyclopropyl-1,2,3,4-tetrahydronaphthalen-1-yl)methyl]amino}pyridine-4-carboxylic acid]
20 | ≥ 7.00 | ≥ 7.00 |  | O=C(O)c1ccncc1NCc1cccc(F)c1 [Example 3, 3-[(3-fluorobenzyl)amino)pyridine-4-carboxylic acid]
21 | ≥ 7.00 | ≥ 7.00 |  | Cc1cc(Cl)ccc1CNc1cnccc1C(=O)O [Example 15, 3-[(4-chloro-2-methylbenzyl)amino]pyridine-4-carboxylic acid]
22 | 6.00 to 7.00 | ≥ 7.00 | ≥ 7.00 | O=C(O)c1ccncc1NC[C@H]1CCCc2ccccc21 [Example 47, 3-{[(1S)-1,2,3,4-tetrahydronaphthalen-1-ylmethyl]amino}pyridine-4-carboxylic acid]
23 | ≥ 7.00 | ≥ 7.00 |  | O=C(O)c1ccncc1NCc1ccccc1C1CC1 [Example 19, 3-[(2-cyclopropylbenzyl)amino]pyridine-4-carboxylic acid]
24 | ≥ 7.00 | ≥ 7.00 | ≥ 7.00 | O=C(O)c1ccncc1NCC1Cc2ccccc2O1 (stereo not shown) [Example 43, 3-[(2,3-dihydro-1-benzofuran-2-ylmethyl)amino]pyridine-4-carboxylic acid]
25 | ≥ 7.00 | ≥ 7.00 | ≥ 7.00 | Cc1cccc(CNc2cnccc2C(=O)O)c1C1CC1 [Example 30, 3-[(2-cyclopropyl-3-methylbenzyl)amino]pyridine-4-carboxylic acid]
26 | 6.00 to 7.00 | ≥ 7.00 | ≥ 7.00 | O=C(O)c1ccncc1NCc1ccccc1Nc1ccccc1 [Example 36, 3-{[2-(phenylamino)benzyl]amino}pyridine-4-carboxylic acid]
27 | 6.00 to 7.00 | ≥ 7.00 | ≥ 7.00 | O=C(O)c1ccncc1NCc1ccc(C2CC2)cc1 [Example 25, 3-[(4-cyclopropylbenzyl)amino]pyridine-4-carboxylic acid]
28 | ≥ 7.00 | ≥ 7.00 | ≥ 7.00 | O=C(O)c1ccncc1NCc1ccc(C(F)(F)F)cc1 [Example 8, 3-{[4-(trifluoromethyl)benzyl]amino}pyridine-4-carboxylic acid]
30 | 5.00 to 6.00 | 6.00 to 7.00 |  | O=C(O)c1ccncc1NCc1ccc(-c2ccccc2)cc1 [Example 9, 3-[(biphenyl-4-ylmethyl)amino]pyridine-4-carboxylic acid]
